Results from US9809865B2, “Anti-microbial agent from Paenibacillus sp. and methods and uses thereof” (Best Environmental Technologies, Inc., priority 2009, dated 2017).

Key:
[1] = system: Paenibacillus polymyxa JB05-01-1; assay: Agar well diffusion method; assay type: cell-based; design: key: No inhibition at concentrations up of 0.1 μgml−1.; +: Diameter of the inhibition zone 10 ± 2 mm; ++: Diameter of the inhibition zone 16 ± 2 mm; +++: Diameter of the inhibition zone 28 ± 2 mm; conditions: medium LB; polymyxin B at 0.1 μg ml^−1
Protocol: (§1) The qualitative antimicrobial spectrum of P. polymyxa culture supernatant was determined using the agar well diffusion method (Wolf and Gibbons 1996). Briefly, a 25-ml volume of molten tryptic soy agar (0.75% agar w/v) was cooled to 47° C. and seeded with 1% (v/v) overnight TSB culture of an indicator strain. The seeded agar was then poured into a sterile Petri plate and allowed to solidify at room temperature. Wells (7 mm) were cut in the solidified agar using a sterile metal cork borer and filled with 80 μl of supernatant. The plates were left at 5° C. for 2 h to allow diffusion of the tested aliquot and then incubated aerobically for 18 h at 30° C. Absence or presence of inhibition zones as well as their diameters were recorded.

Listeria innocua HPB 13 = assay: Agar well diffusion method; assay type: cell-based; design: key: No inhibition at concentrations up of 0.1 μgml−1.; +: Diameter of the inhibition zone 10 ± 2 mm; ++: Diameter of the inhibition zone 16 ± 2 mm; +++: Diameter of the inhibition zone 28 ± 2 mm; conditions: medium TSB; polymyxin B at 0.1 μg ml^−1
Protocol: as §1

Listeria ivanovii HPB 28 = assay: Agar well diffusion method; assay type: cell-based; design: key: No inhibition at concentrations up of 0.1 μgml−1.; +: Diameter of the inhibition zone 10 ± 2 mm; ++: Diameter of the inhibition zone 16 ± 2 mm; +++: Diameter of the inhibition zone 28 ± 2 mm; conditions: medium TSB; polymyxin B at 0.1 μg ml^−1
Protocol: as §1

[2] = system: Paenibacillus polymyxa ATCC 7070; assay: Agar well diffusion method; assay type: cell-based; design: key: No inhibition at concentrations up of 0.1 μgml−1.; +: Diameter of the inhibition zone 10 ± 2 mm; ++: Diameter of the inhibition zone 16 ± 2 mm; +++: Diameter of the inhibition zone 28 ± 2 mm; conditions: medium LB; polymyxin B at 0.1 μg ml^−1
Protocol: as §1

Escherichia coli LRC TB1 = assay: Agar well diffusion method; assay type: cell-based; conditions: medium TSB; polymyxin B at 0.1 μg ml^−1
Protocol: as §1

[3] = system: Pseudomonas fluorescens LRC R73; assay: Agar well diffusion method; assay type: cell-based; conditions: medium TSB; polymyxin B at 0.1 μg ml^−1
Protocol: as §1

[4] = system: Pantoea agglomerans LRC BC1; assay: Agar well diffusion method; assay type: cell-based; conditions: medium TSB; polymyxin B at 0.1 μg ml^−1
Protocol: as §1

Escherichia coli LRC RR1 = assay: Agar well diffusion method; assay type: cell-based; conditions: medium TSB; polymyxin B at 0.1 μg ml^−1
Protocol: as §1

[5] = system: Escherichia coli LRC SA1650; assay: Agar well diffusion method; assay type: cell-based; conditions: medium TSB; polymyxin B at 0.1 μg ml^−1
Protocol: as §1

Escherichia coli RR1 = assay: Sensitivity to enzymes, detergents or urea, residual activity by agar diffusion test; assay type: physicochemical; conditions: polymyxin B 0.1 μg ml^−1
Protocol: The sensitivities of the antimicrobial agent to proteases (all from Sigma-Aldrich, Oakville, ON) or other agents was tested by treating P. polymyxa JB05-01-1 culture supernatant with 2 mg ml^−1 final concentration of proteinase K (Tritirachium album), α-chymotrypsin (bovine pancreas), lipase (Sigma-Aldrich, Oakville, ON), trypsin (porcine pancreas), urea (Sigma-Aldrich, St. Louis Mo.), sodium dodecyl sulfate (SDS) (Sigma-Aldrich, St. Louis Mo.) for 1 h at 37° C. (Motta et al. 2007). Thermal stability of the antimicrobial activity was determined by holding aliquots (1000 μl) of 20 h culture supernatant at temperatures ranging from 50° C. to 90° C. for 30 min or at 100° C. for 10 min. The effect of pH was determined by adjusting the pH of P. polymyxa JB05-01-1 culture supernatant from 2 to 9 using 5 M HCl or NaOH. The activity of each sample was compared with the activity of untreated P. polymyxa JB05-01 culture supernatant at pH 6.8.
The effect of several organic solvents was evaluated by stirring 20 h culture supernatant for 2 h with 10% (v/v) acetonitrile, hexane, propanol, ethanol, toluene, acetone, butanol or methanol (all solvents were obtained from Sigma-Aldrich, St. Louis Mo.). Residual antimicrobial activities were tested using the agar diffusion assay against E. coli RR1 as described herein, with controls for effects of residual solvent.

[6] = system: Butyrivibrio fibrisolvens LRC OR85; assay: Agar well diffusion method; assay type: cell-based; conditions: medium L-10; polymyxin B at 0.1 μg ml^−1
Protocol: (§2) The qualitative antimicrobial spectrum of P. polymyxa culture supernatant was determined using the agar well diffusion method (Wolf and Gibbons 1996). […] The seeded agar was then poured into a sterile Petri plate and allowed to solidify at room temperature. Wells (7 mm) were cut in the solidified agar using a sterile metal cork borer and filled with 80 μl of supernatant. The plates were left at 5° C. for 2 h to allow diffusion of the tested aliquot and then incubated aerobically for 18 h at 30° C. Absence or presence of inhibition zones as well as their diameters were recorded.

[7] = system: Fibrobacter succinogenes ATCC 19169; assay: Agar well diffusion method; assay type: cell-based; conditions: medium L-10; polymyxin B at 0.1 μg ml^−1
Protocol: as §2

[8] = system: Pediococcus acidilactici ATCC 25740; assay: Agar well diffusion method; assay type: cell-based; design: key: No inhibition at concentrations up of 0.1 μgml−1.; +: Diameter of the inhibition zone 10 ± 2 mm; ++: Diameter of the inhibition zone 16 ± 2 mm; +++: Diameter of the inhibition zone 28 ± 2 mm; conditions: medium MRS; polymyxin B at 0.1 μg ml^−1
Protocol: as §2

[9] = system: Bacillus lecheniformis LRC 8422; assay: Agar well diffusion method; assay type: cell-based; design: key: No inhibition at concentrations up of 0.1 μgml−1.; +: Diameter of the inhibition zone 10 ± 2 mm; ++: Diameter of the inhibition zone 16 ± 2 mm; +++: Diameter of the inhibition zone 28 ± 2 mm; conditions: medium LB; polymyxin B at 0.1 μg ml^−1
Protocol: as §2

[10] = system: Paenibacillus polymyxa ATCC 43865; assay: Agar well diffusion method; assay type: cell-based; design: key: No inhibition at concentrations up of 0.1 μgml−1.; +: Diameter of the inhibition zone 10 ± 2 mm; ++: Diameter of the inhibition zone 16 ± 2 mm; +++: Diameter of the inhibition zone 28 ± 2 mm; conditions: medium LB; polymyxin B at 0.1 μg ml^−1
Protocol: as §2

[11] = system: Bacillus circulans LRC 9E2; assay: Agar well diffusion method; assay type: cell-based; design: key: No inhibition at concentrations up of 0.1 μgml−1.; +: Diameter of the inhibition zone 10 ± 2 mm; ++: Diameter of the inhibition zone 16 ± 2 mm; +++: Diameter of the inhibition zone 28 ± 2 mm; conditions: medium LB; polymyxin B at 0.1 μg ml^−1
Protocol: as §2

[12] = system: Streptococcus bovis ATCC 33317; assay: Agar well diffusion method; assay type: cell-based; design: key: No inhibition at concentrations up of 0.1 μgml−1.; +: Diameter of the inhibition zone 10 ± 2 mm; ++: Diameter of the inhibition zone 16 ± 2 mm; +++: Diameter of the inhibition zone 28 ± 2 mm; conditions: medium LB; polymyxin B at 0.1 μg ml^−1
Protocol: as §2

[13] = system: Enterococcus mundtii LRC 8369; assay: Agar well diffusion method; assay type: cell-based; design: key: No inhibition at concentrations up of 0.1 μgml−1.; +: Diameter of the inhibition zone 10 ± 2 mm; ++: Diameter of the inhibition zone 16 ± 2 mm; +++: Diameter of the inhibition zone 28 ± 2 mm; conditions: medium LB; polymyxin B at 0.1 μg ml^−1
Protocol: as §2

[14] = system: Lactococcus lactis ATCC 7962; assay: Agar well diffusion method; assay type: cell-based; design: key: No inhibition at concentrations up of 0.1 μgml−1.; +: Diameter of the inhibition zone 10 ± 2 mm; ++: Diameter of the inhibition zone 16 ± 2 mm; +++: Diameter of the inhibition zone 28 ± 2 mm; conditions: medium MRS; polymyxin B at 0.1 μg ml^−1
Protocol: as §2

[15] = system: Pediococcus pentosaceus ATCC 25745; assay: Agar well diffusion method; assay type: cell-based; design: key: No inhibition at concentrations up of 0.1 μgml−1.; +: Diameter of the inhibition zone 10 ± 2 mm; ++: Diameter of the inhibition zone 16 ± 2 mm; +++: Diameter of the inhibition zone 28 ± 2 mm; conditions: medium LB; polymyxin B at 0.1 μg ml^−1
Protocol: as §2

E. coli RR1 = assay: Effect of culture supernatant on exponentially growing E. coli RR1 (viable counts, OD600); assay type: cell-based, Escherichia coli; conditions: viability of E. coli RR1 cells; OD600nm constant
Protocol: To determine the effect of P. polymyxa JB05-01-1 culture supernatant, E. coli RR1 cells were cultivated in the presence of concentrated P. polymyxa culture supernatant containing JB05-01-1 at final total activity of 0, 32, and 96 AU/ml. The OD600nm of culture was determined every two hours using a multi-detection microplate reader (Bio-Teck instrument Inc, Winooski, Vt., USA). The corresponding final cell concentration expressed as CFU/ml was determined as described by Naghmouchi et al. (2008). The inhibitory activity (I.A.) of culture supernatant containing JB05-01-1 was calculated as a percentage, I.A.=100-100[OD600(x)/OD600(i)], where (x) is culture supernatant containing JB05-01-1 at the corresponded total activity and (i) is the control culture. Data was reported as means of duplicate analyses.

For Polymyxin B, the “Inhibition (inhibition zone)” value [1] was “−”, the “Inhibition (inhibition zone)” value (Listeria innocua HPB 13) was “−” and the “Inhibition (inhibition zone)” value (Listeria ivanovii HPB 28) was “−”. For the same substance, the “Inhibition (inhibition zone)” value [2] was “−”, the “Inhibition (inhibition zone)” value (Escherichia coli LRC TB1) was “+++ (Diameter of the inhibition zone 28 ± 2 mm)” and the “Inhibition (inhibition zone)” value [3] was “++ (Diameter of the inhibition zone 16 ± 2 mm)”. The “Inhibition (inhibition zone)” value [4] was “+ (Diameter of the inhibition zone 10 ± 2 mm)”, the “Inhibition (inhibition zone)” value (Escherichia coli LRC RR1) was “+++ (Diameter of the inhibition zone 28 ± 2 mm)” and the “Inhibition (inhibition zone)” value [5] was “++ (Diameter of the inhibition zone 16 ± 2 mm)”. For the same substance, the “% of residual activity” value (Escherichia coli RR1; Chymotrypsin 2 mg ml^−1, 1 h at 37° C.) was 79.5%, the “% of residual activity” value (Escherichia coli RR1; Lipase 2 mg ml^−1, 1 h at 37° C.) was 58.3% and the “% of residual activity” value (Escherichia coli RR1; Proteinase K 2 mg ml^−1, 1 h at 37° C.) was 4.5%. For the same substance, the “% of residual activity” value (Escherichia coli RR1; SDS 2 mg ml^−1, 1 h at 37° C.) was 70.1%, the “% of residual activity” value (Escherichia coli RR1; Trypsin 2 mg ml^−1, 1 h at 37° C.) was 62.5% and the “% of residual activity” value (Escherichia coli RR1; Urea 2 mg ml^−1, 1 h at 37° C.) was 62.5%. For the same substance, the “Inhibition (inhibition zone)” value [6] was “+ (Diameter of the inhibition zone 10 ± 2 mm)”, the “Inhibition (inhibition zone)” value [7] was “+ (Diameter of the inhibition zone 10 ± 2 mm)” and the “Inhibition (inhibition zone)” value [8] was “−”. The “Inhibition (inhibition zone)” value [9] was “−”, the “Inhibition (inhibition zone)” value [10] was “−” and the “Inhibition (inhibition zone)” value [11] was “−”. For the same substance, the “Inhibition (inhibition zone)” value [12] was “−”, the “Inhibition (inhibition zone)” value [13] was “−” and the “Inhibition (inhibition zone)” value [14] was “−”. The “Inhibition (inhibition zone)” value [15] was “−” and the Mode of action (E. coli RR1) was “bactericidal action”.
